The structures appear in SMILES notation.

This test has as its target T1, APOL1 (Homo sapiens, UniProt O14791).
T1 sequence (O14791 1-398): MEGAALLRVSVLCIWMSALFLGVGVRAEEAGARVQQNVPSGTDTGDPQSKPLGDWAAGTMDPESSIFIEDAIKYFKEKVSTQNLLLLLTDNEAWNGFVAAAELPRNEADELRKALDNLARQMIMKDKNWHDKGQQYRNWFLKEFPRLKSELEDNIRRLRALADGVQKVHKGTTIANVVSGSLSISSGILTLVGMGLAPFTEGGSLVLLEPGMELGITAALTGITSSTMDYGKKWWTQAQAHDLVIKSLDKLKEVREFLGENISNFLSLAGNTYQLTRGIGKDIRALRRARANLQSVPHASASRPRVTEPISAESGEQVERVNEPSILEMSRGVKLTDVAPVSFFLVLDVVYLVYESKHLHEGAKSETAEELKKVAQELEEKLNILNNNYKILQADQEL
In words: MultiTox-Fluor Multiplex Cytotoxicity Assay, tet-inducible APOL1 T-REx-HEK293 cells (G0, G1 or G2 clone not specified for Table 20). Format: cell-based. The following applies: tet-induced, 24 hours with compound, ratio of dead to live cells, read-out: IP50 (i.e., IC50 for cell proliferation). Here is the method:
Human embryonic kidney (HEK293) cell lines containing a tet-inducible expression system (T-REx™; Invitrogen, Carlsbad, CA) and Adeno-associated virus site 1 pAAVS1-Puro-APOL1 G0 or pAAVS1-Puro-APOL1 G1 or pAAVS1-Puro-APOL1 G2 Clones G0 DC2.13, G1 DC3.25, and G2 DC4.44 were grown in a T-225 flask at ˜90% confluency in cell growth media (DMEM, 10% Tet-free FBS, 2 mM L-glutamine, 100 Units/mL penicillin-streptomycin, 5 μg/mL blasticidin S HCl, 1 μg/mL puromycin dihydrochloride). Cells were washed with DPBS and then trypsinized to dissociate from the flask. Media was used to quench the trypsin, cells were then pelleted at 200 g and resuspended in fresh cell assay media (DMEM, 2% Tet-free FBS, 2 mM L-glutamine, 100 Units/mL penicillin-streptomycin). Cells were counted and diluted to 1.17×10^6 cells/mL. 20 μL of cells (23,400/well) were dispensed in every well of a 384-well Poly-D-Lysine coated plate using the Multidrop dispenser. The plates were then incubated at room temperature for one hour.
Tetracycline is needed to induce APOL1 expression. 1 mg/mL tet stock in water was diluted to 250 ng/mL (5×) in cell assay media. 60 μL of cell assay media (no tet control) was dispensed in columns 1 and 24, and 60 μL of 5× tet in 384-PP-round bottom plate was dispensed in columns 2 to 23 with the Multidrop dispenser.
Assay ready plates from the Global Compound Archive were ordered using template 384_APOL1Cell_DR10n2_50 uM_v3. Compounds were dispensed at 200 nL in DMSO. The final top concentration was 10 μM with a 10 point 3-fold dilution in duplicate in the MultiTox assay.
20 μL was transferred from the 5× tet plate to the ARP and mixed, then 5 μL of 5× tet and the compounds were transferred to the cell plate and mixed using the Bravo. The cell plate was placed in the humidified 37° C. 5% CO2 incubator for 24 hours.
The MultiTox-Fluor Multiplex Cytotoxicity Assay was performed in accordance with the manufacturer's protocol. After cells were incubated with tet and compound for 24 hours, 25 μL of 1× MultiTox reagent was added to each well using the Multidrop dispenser; the plates were placed on a plate shaker (600 rpm) for 2 minutes, then centrifuged briefly and placed back in the 37° C. incubator for 30 minutes. The cell viability (excitation: 400 nm, emission: 486 nm) and cytotoxicity (excitation: 485 nm, emission: 535 nm) were read using the EnVision plate reader. A ratio of dead (cytotoxicity) to live (viability) cells was reported. Data was exported and analyzed in Genedata. Data was normalized using percent of control, no tet (100% viability), and 50 ng/mL tet treated (0% viability), and fit using Smart Fit settings in Genedata.
Regarding `C[C@H]1C[C@@]2(CCN1Cc1cnn(CC(=O)N(C)C)c1)OCCc1ccc(Cl)cc12` [Compound 102], the IC50 was 50 to 500 nM. Next, `C[C@H]1C[C@@]2(CCN1Cc1cnn(CCO)c1)OCCc1ccc(Cl)cc12` [Compound 103]: at most 50 nM; `C[C@H]1C[C@@]2(CCN1Cc1cn[nH]c1)OCCc1ccc(Cl)cc12` [Compound 104]: at most 50 nM. Take `C[C@H]1C[C@@]2(CCN1Cc1cn(C)nn1)OCCc1ccc(Cl)cc12` [Compound 105]: the IC50 was at most 50 nM. As for `C[C@H]1C[C@@]2(CCN1Cc1c[nH]nn1)OCCc1ccc(Cl)cc12` [Compound 106], the IC50 was at most 50 nM. As to `C[C@H]1C[C@@]2(CCN1Cc1ccc3c(c1)n(C)c(=O)n3C)OCCc1ccc(Cl)cc12` [Compound 107], the IC50 was at most 50 nM.

Take `C[C@H]1C[C@@]2(CCN1Cc1cn(C)cn1)OCCc1ccc(Cl)cc12` [Compound 108]: the IC50 was at least 500 nM. Next, `Cc1cc(CN2CC[C@]3(C[C@@H]2C)OCCc2ccc(Cl)cc23)[nH]n1` [Compound 109]: at most 50 nM; `C[C@H]1C[C@@]2(CCN1Cc1ncc[nH]1)OCCc1ccc(Cl)cc12` [Compound 110]: 50 to 500 nM; `C[C@H]1C[C@@]2(CCN1Cc1cnn(C)c1)OCCc1ccc(Cl)cc12` [Compound 111]: at most 50 nM. With `Cc1ncc(CN2CC[C@]3(C[C@@H]2C)OCCc2ccc(Cl)cc23)cn1` [Compound 112], the IC50 was at most 50 nM. Next, `C[C@H]1C[C@@]2(CCN1Cc1cnn3c1CCC3)OCCc1ccc(Cl)cc12` [Compound 113]: at least 500 nM; `C[C@H]1C[C@@]2(CCN1Cc1cccnc1)OCCc1ccc(Cl)cc12` [Compound 114]: at most 50 nM; `C[C@H]1C[C@@]2(CCN1Cc1cnn(CC(C)(CO)CO)c1)OCCc1ccc(Cl)cc12` [Compound 115]: at most 50 nM.

With `C[C@H]1C[C@@]2(CCN1Cc1cnn(C3CCS(=O)(=O)C3)c1)OCCc1ccc(Cl)cc12` (stereo partly shown) [Compound 116], the IC50 is at most 50 nM. Next, `C[C@H]1C[C@@]2(CCN1Cc1cnn(-c3ccccn3)c1)OCCc1ccc(Cl)cc12` [Compound 117]: at most 50 nM; `C[C@H]1C[C@@]2(CCN1Cc1ccncc1)OCCc1ccc(Cl)cc12` [Compound 118]: at most 50 nM. Next, `C[C@H]1C[C@@]2(CCN1Cc1cncnc1)OCCc1ccc(Cl)cc12` [Compound 119]: at most 50 nM; `C[C@H]1C[C@@]2(CCN1Cc1cnn(C(C)(C)C)c1)OCCc1ccc(Cl)cc12` [Compound 120]: 50 to 500 nM. `CCn1cc(CN2CC[C@]3(C[C@@H]2C)OCCc2ccc(Cl)cc23)cn1` [Compound 121]: the IC50 is at most 50 nM. Next, `C[C@H]1C[C@@]2(CCN1Cc1cnn(C(F)F)c1)OCCc1ccc(Cl)cc12` [Compound 122]: at most 50 nM; `C[C@H]1C[C@@]2(CCN1Cc1cnc(N)nc1)OCCc1ccc(Cl)cc12` [Compound 123]: at most 50 nM; `C[C@H]1C[C@@]2(CCN1Cc1cnn(C[C@@H](O)C(C)(C)O)c1)OCCc1ccc(Cl)cc12` [Compound 124]: at most 50 nM. Next, `C[C@H]1C[C@@]2(CCN1Cc1cnn(C[C@H](O)C(C)(C)O)c1)OCCc1ccc(Cl)cc12` [Compound 125]: at most 50 nM; `CNS(=O)(=O)CCn1cc(CN2CC[C@]3(C[C@@H]2C)OCCc2ccc(Cl)cc23)cn1` [Compound 126]: at most 50 nM; `Cn1cc(CN2CCC3(CC2)OCCc2ccccc23)cn1` [Compound 127]: at least 500 nM. Take `Cn1cc(CN2CCC3(CC2)OCCc2ccc(C(F)(F)F)cc23)cn1` [Compound 128]: the IC50 was at least 500 nM. Next, `CS(=O)(=O)CCn1cc(CN2CCC3(CC2)OCCc2ccc(Cl)cc23)nn1` [Compound 129]: at least 500 nM.

With `CS(=O)(=O)CCn1cc(CN2CCC3(CC2)OCC(O)c2ccc(Cl)cc23)cn1` (stereo not shown) [Compound 130], the IC50 fell in the range of 50 to 500 nM.

With `C[C@H]1C[C@@]2(CCN1Cc1cnn(C)c1)OCC(O)c1ccc(Cl)cc12` (stereo partly shown) [Compound 131], the IC50 was at most 50 nM.

Turning to `C[C@H]1C[C@@]2(CCN1Cc1cnn(CCS(C)(=O)=O)c1)OC[C@H](O)c1ccc(Cl)cc12` [Compound 132], the IC50 is at most 50 nM. Next, `C[C@H]1C[C@@]2(CCN1Cc1cnn(CCS(C)(=O)=O)c1)OC[C@@H](O)c1ccc(Cl)cc12` [Compound 133]: at most 50 nM; `C[C@H]1C[C@@]2(CCN1Cc1cnn(C)c1)OCC(O)c1ccc(Cl)cc12` (stereo partly shown) [Compound 134]: at most 50 nM. Next, `C[C@H]1C[C@@]2(CCN1Cc1cnn(CCS(C)(=O)=O)c1)OCC(F)(F)c1ccc(Cl)cc12` [Compound 135]: at most 50 nM. On to `Cc1ccc2c(c1)C1(CCN(Cc3ccccc3)C(C)C1)OCC2` (stereo not shown) [Compound 136], for which the IC50 fell in the range of 50 to 500 nM. Next, `Cc1ccc2c(c1)C1(CCN(Cc3ccccc3)C(C)C1)OCC2` (stereo not shown) [Compound 137]: at least 500 nM; `C[C@H]1C[C@@]2(CCN1Cc1ccccn1)OCCc1ccc(Cl)cc12` [Compound 138]: at least 500 nM. Consider `CC1CN(Cc2cnn(C)c2)CCC12OCCc1ccc(Cl)cc12` (stereo not shown) [Compound 140, 7-chloro-3′-methyl-1′-[(1-methylpyrazol-4-yl)methyl]spiro[isochromane-1,4′-piperidine]], for which the IC50 is at least 500 nM. Consider `C[C@H]1C[C@@]2(CCN1Cc1cn(CCO)nn1)OCCc1ccc(Cl)cc12` [Compound 141, 2-[4-[[(1R,2′S)-7-chloro-2′-methyl-spiro[isochromane-1,4′-piperidine]-1′-yl]methyl]triazol-1-yl]ethanol], for which the IC50 was at most 50 nM. Next, `C[C@H]1C[C@@]2(CCN1Cc1cn(Cc3ccnc(CO)c3)nn1)OCCc1ccc(Cl)cc12` [Compound 142, (4-((4-(((1R,2′S)-7-chloro-2′-methylspiro[isochromane-1,4′-piperidin]-1′-yl)methyl)-1H-1,2,3-triazol-1-yl)methyl)pyridin-2-yl)methanol]: 50 to 500 nM; `C[C@H]1C[C@@]2(CCN1Cc1cn(CC(O)C(C)(C)O)nn1)OCCc1ccc(Cl)cc12` (stereo partly shown) [Compound 143]: at most 50 nM. Next, `CC(O)Cn1cc(CN2CC[C@]3(C[C@@H]2C)OCCc2ccc(Cl)cc23)nn1` (stereo partly shown) [Compound 144]: at most 50 nM; `C[C@H]1C[C@@]2(CCN1Cc1cn(CC3CC(=O)N(C)C3)nn1)OCCc1ccc(Cl)cc12` (stereo partly shown) [Compound 145]: 50 to 500 nM; `C[C@H]1C[C@@]2(CCN1Cc1cn(C3CC(=O)N(C)C3)nn1)OCCc1ccc(Cl)cc12` (stereo partly shown) [Compound 146]: at most 50 nM. Next, `C[C@H]1C[C@@]2(CCN1Cc1cn(CCCO)nn1)OCCc1ccc(Cl)cc12` [Compound 147]: at most 50 nM; `C[C@H]1C[C@@]2(CCN1Cc1cn(CC3(CO)CC3)nn1)OCCc1ccc(Cl)cc12` [Compound 148]: at most 50 nM.

On to `C[C@H]1C[C@@]2(CCN1Cc1cn(CC3(O)CCOC3)nn1)OCCc1ccc(Cl)cc12` (stereo partly shown) [Compound 149], for which the IC50 is at most 50 nM.

For `C[C@H]1C[C@@]2(CCN1Cc1cn(C3CN(S(C)(=O)=O)C3)nn1)OCCc1ccc(Cl)cc12` [Compound 150], the IC50 is at most 50 nM. As for `C[C@H]1C[C@@]2(CCN1Cc1cn(C(CO)CO)nn1)OCCc1ccc(Cl)cc12` [Compound 151], the IC50 is at least 500 nM. Next, `C[C@H]1C[C@@]2(CCN1Cc1cn(CC(O)CO)nn1)OCCc1ccc(Cl)cc12` (stereo partly shown) [Compound 152]: at most 50 nM; `C[C@H]1C[C@@]2(CCN1Cc1cn(C(C)(CO)CO)nn1)OCCc1ccc(Cl)cc12` [Compound 153]: at least 500 nM; `CCn1cc(CN2CC[C@]3(C[C@@H]2C)OCCc2ccc(Cl)cc23)nn1` [Compound 154]: 50 to 500 nM.

(Values after patent US20250195483A1, “SPIRO PIPERIDINE DERIVATIVES AS INHIBITORS OF APOL1 AND METHODS OF USING SAME” (Vertex Pharmaceuticals Incorporated, priority 2022, published 2025).)
